Laboratory results from patent publication US10251893B2 (NOVARTIS AG, priority 2009, dated 2019).

System: Wnt signaling
Assay: Wnt-Luc reporter assay for pathway inhibition of Wnt signaling
Type: cell-based, Mouse (TM3 Wnt-Luc cells) or Human (293 Wnt-Luc cells)
Conditions: 24 h, Wnt-Luc reporter cells co-cultured with L-cell Wnt3a cells, luciferase luminescence reduced by 50%
Text: The exemplified compounds of the invention are summarized in Table 1, with IC50 values measured using Wnt-Luc reporter assays.

SMILES	IC50
Cc1cc(-c2ccc(CC(=O)Nc3ccc(-c4ccccc4)cn3)cc2)ccn1 [Cpd 26]	< 0.4 nM
Cc1cc(-c2ccc(CC(=O)Nc3ccc(-c4ccccc4)cn3)cn2)ccn1 [compound 51]	< 0.14 nM
Cc1cc(-c2ncc(CC(=O)Nc3ccc(-c4cnccn4)cn3)cc2C)ccn1 [Cpd 86]	0.38 nM

Second part, the compound after the results:

IC50	SMILES
< 0.1 nM	Cc1cc(CC(=O)Nc2ccc(-c3cccc(F)c3)cn2)cnc1-c1ccnnc1 [Cpd 74]
< 0.11 nM	Cc1cc(-c2ccc(CC(=O)Nc3ccc(-c4cccnc4)cc3)cc2)ccn1 [compound 59]
< 0.09 nM	Cc1cc(-c2ccc(CC(=O)Nc3ccc(-c4cccc(F)c4)cn3)cc2)ccn1 [compound 56]
< 0.11 nM	Cc1cc(-c2ccc(CC(=O)Nc3ccc(-c4ccccc4)nc3)cc2)ccn1 [compound 36]
